The source of these data is patent US11814367B2, “Inhibitors of glycogen synthase 1 (GYS1) and methods of use thereof” (Maze Therapeutics, Inc., priority 2021, dated 2023).

Experiment [1] concerns the target hGYS1 enzyme (recombinant hGYS1/GN1 protein) (Homo sapiens (Human), UniProt P13807). In words: GYS1 coupled enzyme assay (PK/LDH). It is filed as biochemical. The following applies: hGYS1/GN1 50 nM, UDP-Glucose 0.8 mM, G6P 1 mM; geometric mean of at least 2 runs.
Experiment [2] has as its target hGYS2 enzyme (recombinant hGYS2/GN1 protein) (Homo sapiens (Human), UniProt P54840). In words: GYS2 coupled enzyme assay (PK/LDH). The format is biochemical. The following applies: geometric mean of at least 2 assay runs on separate days, read-out: Avg_IC50. The text has this:
The GYS2 coupled enzyme assay is a kinetic biochemical assay that indirectly quantifies the rate of glycogen synthesis by coupling the conversion of GYS2 substrate UDP-glucose into UDP with downstream enzymatic reactions. UDP is released from UDP-glucose as glucose monomers are linked into the growing glycogen strand by GYS2. The coupled assay then proceeds with pyruvate kinase utilizing UDP and phospho(enol)pyruvate (PEP) to form pyruvate. Lactate dehydrogenase then converts pyruvate and NADH into lactate and NAD+. Oxidation of NADH to NAD+ can be measured continuously with a plate reader by quantifying the decrease in NADH absorbance at 340 nm over time.
Compounds that inhibit the hGYS2 enzyme and, subsequently, the downstream conversion of NADH to NAD+, were tested using assay ready plates (black, clear bottom 384 well plates) in a final DMSO reaction volume of 2.5% DMSO. The Assay Buffer contained 50 mM Tris pH 7.5, 2 mM MgCl2, and 100 mM KCl. Fresh stocks of BSA at a final concentration of 0.02% and TCEP 1 mM were added before splitting buffer into hGYS2 buffer and substrate buffer. To the hGYS2 buffer, rabbit liver glycogen was added at a final concentration of 0.2% glycogen. Glucose-6-Phosphate was added at 2 mM, recombinant hGYS2/GN1 protein was added at 200 nM to the substrate buffer, phosphoenolpyruvate (PEP) was added at 2 mM, UDP-Glucose was added at 2 mM, NADH was added at 0.6 mM, and Pyruvate Kinase/Lactate Dehydrogenase was added at 20 units/mL. The reaction was initiated by mixing hGYS2 buffer and substrate buffer at a 1:1 ratio. Both buffers were plated using a liquid dispensing device with hGYS2 buffer plated first followed by the substrate buffer. Plates were spun briefly to eliminate air bubbles and are immediately read in continuous mode at an absorbance of 340 nm, for 10 time points in one-minute increments, for a total of 10 minutes. The slope from these 10 time points was normalized to the positive and negative control wells. The duplicate % inhibition values are then averaged and fit to a Hill equation for dose response according to the Levenberg-Marquardt algorithm with the Hill equation maximum set to 100 and the minimum set to 0.
The results are shown in Table 4 below, which reports the IC50 of each compound. Unless otherwise specified, IC50 values are reported as the geometric mean of at least 2 assay runs on separate days. As shown in the table below, the compounds of the present invention are not potent inhibitors of human GYS2. Unless otherwise specified, IC50 values are reported as the geometric mean of at least two assay runs on separate days. Each run represents the average of a technical replicate, where each compound was assayed twice in the same plate. A superscript “#” symbol in Table 4 indicates results from a single assay run.

Sequence of hGYS2 enzyme (recombinant hGYS2/GN1 protein) (P54840 whole entry): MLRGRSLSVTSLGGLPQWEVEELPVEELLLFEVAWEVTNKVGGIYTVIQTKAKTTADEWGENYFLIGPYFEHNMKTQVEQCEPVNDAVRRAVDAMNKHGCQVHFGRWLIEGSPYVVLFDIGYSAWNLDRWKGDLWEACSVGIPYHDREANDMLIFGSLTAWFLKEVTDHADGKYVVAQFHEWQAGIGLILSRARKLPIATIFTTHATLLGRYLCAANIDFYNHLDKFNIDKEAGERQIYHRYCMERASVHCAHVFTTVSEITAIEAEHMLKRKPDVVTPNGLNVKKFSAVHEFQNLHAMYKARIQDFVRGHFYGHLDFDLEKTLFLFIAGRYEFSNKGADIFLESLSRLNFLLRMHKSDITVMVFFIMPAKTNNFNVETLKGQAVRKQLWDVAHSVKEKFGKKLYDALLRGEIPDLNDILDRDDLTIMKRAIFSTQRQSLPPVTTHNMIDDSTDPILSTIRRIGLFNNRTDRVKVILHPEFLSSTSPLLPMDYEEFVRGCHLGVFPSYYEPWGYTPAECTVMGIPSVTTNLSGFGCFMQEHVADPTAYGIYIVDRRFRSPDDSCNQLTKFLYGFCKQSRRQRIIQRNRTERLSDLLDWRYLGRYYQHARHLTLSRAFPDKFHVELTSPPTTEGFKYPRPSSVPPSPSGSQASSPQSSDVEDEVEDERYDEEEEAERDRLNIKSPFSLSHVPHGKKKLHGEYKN
Sequence of hGYS2 enzyme (recombinant hGYS2/GN1 protein) (P46976 whole entry partner): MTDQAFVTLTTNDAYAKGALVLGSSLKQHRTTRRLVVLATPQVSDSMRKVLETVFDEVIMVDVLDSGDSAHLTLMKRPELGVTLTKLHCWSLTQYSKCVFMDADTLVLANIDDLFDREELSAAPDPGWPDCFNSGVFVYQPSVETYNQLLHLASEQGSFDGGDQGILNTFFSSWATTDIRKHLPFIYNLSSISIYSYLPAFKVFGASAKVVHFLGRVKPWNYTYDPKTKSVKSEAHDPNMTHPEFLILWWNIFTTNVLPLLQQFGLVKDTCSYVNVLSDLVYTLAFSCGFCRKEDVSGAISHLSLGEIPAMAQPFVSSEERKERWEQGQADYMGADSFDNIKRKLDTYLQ
Sequence of hGYS1 enzyme (recombinant hGYS1/GN1 protein) (P13807 whole entry): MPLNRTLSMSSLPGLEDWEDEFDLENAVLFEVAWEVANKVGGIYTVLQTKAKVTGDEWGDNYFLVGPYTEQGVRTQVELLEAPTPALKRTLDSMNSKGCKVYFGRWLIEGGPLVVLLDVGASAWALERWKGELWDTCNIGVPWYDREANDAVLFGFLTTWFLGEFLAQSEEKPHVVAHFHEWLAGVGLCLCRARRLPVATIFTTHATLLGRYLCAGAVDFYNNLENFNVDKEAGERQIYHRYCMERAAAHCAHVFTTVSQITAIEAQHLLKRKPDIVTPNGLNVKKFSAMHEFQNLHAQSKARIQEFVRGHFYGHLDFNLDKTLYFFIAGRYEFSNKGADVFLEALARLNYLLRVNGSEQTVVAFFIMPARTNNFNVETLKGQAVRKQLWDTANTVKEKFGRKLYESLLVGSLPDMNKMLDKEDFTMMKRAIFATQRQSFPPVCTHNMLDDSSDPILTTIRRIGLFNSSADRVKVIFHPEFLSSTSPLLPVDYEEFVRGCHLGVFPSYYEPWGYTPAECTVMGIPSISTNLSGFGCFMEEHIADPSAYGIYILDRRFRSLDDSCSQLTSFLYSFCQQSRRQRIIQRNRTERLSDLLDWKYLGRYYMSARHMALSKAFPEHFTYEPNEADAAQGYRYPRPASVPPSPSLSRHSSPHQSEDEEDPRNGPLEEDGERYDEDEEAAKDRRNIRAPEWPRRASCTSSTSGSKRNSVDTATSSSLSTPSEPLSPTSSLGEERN
Sequence of hGYS1 enzyme (recombinant hGYS1/GN1 protein) (P46976 whole entry partner): as the sequence (P46976 whole entry partner) above

Regarding `CC(C)c1ccc([C@@H](NC(=O)[C@@H]2C[C@@H](F)CN2C(=O)Cn2ccnn2)c2ccccc2)cc1` (stereo in doubt) [Compound 222, (2RS,4R)-4-fluoro-N-[(S)-phenyl[4-(propan-2-yl)phenyl]methyl]-1-[2-(1H-1,2,3-triazol-1-yl)acetyl]pyrrolidine-2-carboxamide], the IC50 was 0.04 µM in experiment [1] and above 100 µM in experiment [2].

As to `CC(C)c1ccc([C@@H](NC(=O)[C@@H]2C[C@@H](F)CN2C(=O)Cc2nn[nH]n2)c2ccccc2)cc1` (stereo in doubt) [Compound 223, (2RS,4R)-4-fluoro-N-[(S)-phenyl[4-(propan-2-yl)phenyl]methyl]-1-[2-(2H-1,2,3,4-tetrazol-5-yl)acetyl]pyrrolidine-2-carboxamide], the figures for the IC50 in experiment [1] and in experiment [2] were 0.062 µM and above 100 µM, respectively.

Consider `CC(C)c1ccc([C@@H](NC(=O)[C@@H]2C[C@@H](F)CN2C(=O)Cc2nnco2)c2ccccc2)cc1` (stereo in doubt) [Compound 224, (2RS,4R)-4-fluoro-1-[2-(1,3,4-oxadiazol-2-yl)acetyl]-N-[(S)-phenyl[4-(propan-2-yl)phenyl]methyl]pyrrolidine-2-carboxamide], for which the IC50 is 0.07 µM in experiment [1] and above 100 µM in experiment [2].

As for `CC(C)c1ccc([C@@H](NC(=O)[C@@H]2C[C@@H](F)CN2C(=O)Cc2cnnn2C)c2ccccc2)cc1` (stereo in doubt) [Compound 228, (2RS,4R)-4-fluoro-1-[2-(1-methyl-1H-1,2,3-triazol-5-yl)acetyl]-N-[(S)-phenyl[4-(propan-2-yl)phenyl]methyl]pyrrolidine-2-carboxamide], the figures for the IC50 in experiment [1] and in experiment [2] were 0.077 µM and above 100 µM, respectively.

As to `CC(C)c1ccc([C@@H](NC(=O)[C@@H]2C[C@@H](F)CN2C(=O)Cc2cn(C)nn2)c2ccccc2)cc1` (stereo in doubt) [Compound 229, (2RS,4R)-4-fluoro-1-[2-(1-methyl-1H-1,2,3-triazol-4-yl)acetyl]-N-[(S)-phenyl[4-(propan-2-yl)phenyl]methyl]pyrrolidine-2-carboxamide], the IC50 in experiment [1] is 0.025 µM; in experiment [2], above 100 µM.

On to `CC(=O)N1C[C@H]2COC[C@@]2(C(=O)N2C[C@H](F)C[C@H]2C(=O)N[C@@H](c2ccccc2)c2ccc(C(C)C)cc2)C1` [Compound 3, (2S,4R)-1-[(3aS,6aS)-5-acetyl-hexahydro-1H-furo[3,4-c]pyrrole-3a-carbonyl]-4-fluoro-N-[(S)-phenyl[4-(propan-2-yl)phenyl]methyl]pyrrolidine-2-carboxamide], for which the IC50 in experiment [1] was 0.168 µM; in experiment [2], above 100 µM.

On to `CC(=O)N1CC2(CCCC2CC(=O)N2C[C@H](F)C[C@H]2C(=O)N[C@@H](c2ccccc2)c2ccc(C(C)C)cc2)C1` (stereo partly drawn) [Compound 7, (2S,4R)-1-(2-{2-acetyl-2-azaspiro[3.4]octan-5-yl}acetyl)-4-fluoro-N-[(S)-phenyl[4-(propan-2-yl)phenyl]methyl]pyrrolidine-2-carboxamide], for which the IC50 in experiment [1] was 0.113 µM; in experiment [2], above 100 µM.

Consider `CC(C)c1ccc([C@@H](NC(=O)[C@@H]2C[C@@H](F)CN2C(=O)[C@@H]2CNC(=O)O2)c2ccccc2)cc1` [Compound 8, (2S,4R)-4-fluoro-1-[(5S)-2-oxo-1,3-oxazolidine-5-carbonyl]-N-[(S)-phenyl[4-(propan-2-yl)phenyl]methyl]pyrrolidine-2-carboxamide], for which the IC50 is 0.042 µM in experiment [1] and above 100 µM in experiment [2].

With `CC(C)c1ccc([C@@H](NC(=O)[C@@H]2C[C@@H](F)CN2C(=O)Cn2cnnn2)c2ccccc2)cc1` [Compound 9, (2S,4R)-4-fluoro-N-[(S)-phenyl[4-(propan-2-yl)phenyl]methyl]-1-[2-(1H-1,2,3-tetrazol-1-yl)acetyl]pyrrolidine-2-carboxamide], the IC50 in experiment [1] is 0.059 µM; in experiment [2], above 100 µM.

Take `Cc1nnc(CC(=O)N2C[C@H](F)C[C@H]2C(=O)N[C@@H](c2ccccc2)c2ccc(C(C)C)cc2)o1` [Compound 10, (2S,4R)-4-fluoro-1-[2-(5-methyl-1,3,4-oxadiazol-2-yl)acetyl]-N-[(S)-phenyl[4-(propan-2-yl)phenyl]methyl]pyrrolidine-2-carboxamide]: the IC50 was 0.05 µM in experiment [1] and above 100 µM in experiment [2].

For `CC(C)c1ccc([C@@H](NC(=O)[C@@H]2C[C@@H](F)CN2C(=O)CCn2ccnn2)c2ccccc2)cc1` [Compound 11, (2S,4R)-4-fluoro-N-[(S)-phenyl[4-(propan-2-yl)phenyl]methyl]-1-[3-(1H-1,2,3-triazol-1-yl)propanoyl]pyrrolidine-2-carboxamide], the IC50 in experiment [1] is 0.091 µM; in experiment [2], above 100 µM.

As for `CC(C)c1ccc([C@@H](NC(=O)[C@@H]2C[C@@H](F)CN2C(=O)CCC#N)c2ccccc2)cc1` [Compound 13, (2S,4R)-1-(3-cyanopropanoyl)-4-fluoro-N-[(S)-phenyl[4-(propan-2-yl)phenyl]methyl]pyrrolidine-2-carboxamide], the IC50 in experiment [1] is 0.147 µM; in experiment [2], above 100 µM.

Consider `CC(C)c1ccc([C@@H](NC(=O)[C@@H]2C[C@@H](F)CN2C(=O)CS(C)(=O)=O)c2ccccc2)cc1` [Compound 14, (2S,4R)-4-fluoro-1-(2-methanesulfonylacetyl)-N-[(S)-phenyl[4-(propan-2-yl)phenyl]methyl]pyrrolidine-2-carboxamide], for which the IC50 in experiment [1] was 0.129 µM; in experiment [2], above 100 µM.

Regarding `CC(C)c1ccc([C@@H](NC(=O)[C@@H]2C[C@@H](F)CN2C(=O)Cc2cscn2)c2ccccc2)cc1` [Compound 15, (2S,4R)-4-fluoro-N-[(S)-phenyl[4-(propan-2-yl)phenyl]methyl]-1-[2-(1,3-thiazol-4-yl)acetyl]pyrrolidine-2-carboxamide], the IC50 was 0.048 µM in experiment [1] and above 100 µM in experiment [2].

On to `CC(C)c1ccc([C@@H](NC(=O)[C@@H]2C[C@@H](F)CN2C(=O)Cn2cncn2)c2ccccc2)cc1` [Compound 16, (2S,4R)-4-fluoro-N-[(S)-phenyl[4-(propan-2-yl)phenyl]methyl]-1-[2-(1H-1,2,4-triazol-1-yl)acetyl]pyrrolidine-2-carboxamide], for which the results for the IC50 in experiment [1] and in experiment [2] were 0.033 µM and above 100 µM, respectively.

`CC(C)c1ccc([C@@H](NC(=O)[C@@H]2C[C@@H](F)CN2C(=O)Cc2c[nH]cn2)c2ccccc2)cc1` [Compound 18, (2S,4R)-4-fluoro-1-[2-(1H-imidazol-4-yl)acetyl]-N-[(S)-phenyl[4-(propan-2-yl)phenyl]methyl]pyrrolidine-2-carboxamide]: the IC50 was 0.045 µM in experiment [1] and above 100 µM in experiment [2].

For the molecule `CC(C)c1ccc([C@@H](NC(=O)[C@@H]2C[C@@H](F)CN2C(=O)Cn2ccnc2)c2ccccc2)cc1` [Compound 23, (2S,4R)-4-fluoro-1-[2-(1H-imidazol-1-yl)acetyl]-N-[(S)-phenyl[4-(propan-2-yl)phenyl]methyl]pyrrolidine-2-carboxamide], the figures for the IC50 in experiment [1] and in experiment [2] were 0.07 µM and above 100 µM, respectively.

Take `CC(C)c1ccc([C@@H](NC(=O)[C@@H]2C[C@@H](F)CN2C(=O)C(C)n2cnnn2)c2ccccc2)cc1` (stereo partly drawn) [Compound 24, (2S,4R)-4-fluoro-N-[(S)-phenyl[4-(propan-2-yl)phenyl]methyl]-1-[2-(1H-1,2,3,4-tetrazol-1-yl)propanoyl]pyrrolidine-2-carboxamide]: the IC50 is 0.05 µM in experiment [1] and above 100 µM in experiment [2].

Consider `CC(C)c1ccc([C@@H](NC(=O)[C@@H]2C[C@@H](F)CN2C(=O)C2(C)COC2)c2ccccc2)cc1` [Compound 25, (2S,4R)-4-fluoro-1-(3-methyloxetane-3-carbonyl)-N-[(S)-phenyl[4-(propan-2-yl)phenyl]methyl]pyrrolidine-2-carboxamide], for which the results for the IC50 in experiment [1] and in experiment [2] were 0.235 µM and above 100 µM, respectively.

As for `CC(C)c1ccc([C@@H](NC(=O)[C@@H]2C[C@@H](F)CN2C(=O)Cc2cnccn2)c2ccccc2)cc1` [Compound 26, (2S,4R)-4-fluoro-N-[(S)-phenyl[4-(propan-2-yl)phenyl]methyl]-1-[2-(pyrazin-2-yl)acetyl]pyrrolidine-2-carboxamide], the IC50 in experiment [1] is 0.036 µM; in experiment [2] it was above 100 µM.
